Test results: patent US6355658B1, “Coumarin derivatives, methods of preparation and application as medicines” (Centre National de la Recherche Scientifique, priority 1997, dated 2002)

Experiments:
human thrombin = target: T1, human thrombin (Homo sapiens, UniProt P00734); assay: Inactivation kinetics of human thrombin (chromogenic substrate H-D-Phe-Pip-Arg-pNA); format: biochemical; conditions: TABLE 5, phenyl esters, 25° C., pH 7.5, inactivation phase, N.I. = non-inactivator; for kinact/KI: read-out: Ki/KI or kobs/[I], Thrombin
T1 construct: human thrombin
Description: (§1) The inactivating or inhibitory properties of the coumarin derivatives were tested with respect to a certain number of enzymes: human leukocyte elastase, bovine α-chymotrypsin, human thrombin and bovine trypsin. The kinetic measurements were taken at 25° C. in the following buffers: 0.1 M Hepes, 0.5 M NaCl, 0.01% Tween 80, pH 8.0 (human leukocyte elastase); 0.025 M NaH2PO4, 0.05 M KCl, pH 7.5 (α-chymotrypsin); 0.01 M Tris, 0.01 M Hepes, 0.1 M NaCl, 0.1% PEG-6000, pH 7.5 (human thrombin); 0.1 M Tris, 0.01 M CaCl2, pH 7.5 (bovine trypsin). The chromogenic substrates used to determine the activity of the enzymes are: MeOSuc-Ala2-Pro-Val-pNA (human leukocyte elastase); Suc-Ala2-Pro-Phe-pNA (α-chymotrypsin); H-D-Phe-Pip-Arg-pNA (human thrombin); N-benzoyl-Arg-pNA (bovine trypsin) (pNA: para-nitroaniline).
(§2) The interaction of a suicide substrate with a serine protease corresponds to the minimum reaction scheme described in equation 1 in which E represents the enzyme, I represents the inhibitor, E-I represents the acyl-enzyme and E-I′ represents the inactivated enzyme [Silverman R. B., 1988, “Mechanism-based enzyme inactivation: chemistry and enzymology”, volume 1 CRC Press, Boca Raton, Fla.]: [drawing 76]
(§3) When k4 is small compared to k3, equation 1 can be simplified (equation 2, [Daniels et al., 1983, J. Biol. Chem., 258: 15046-15053]): [drawing 77]
(§4) Considering the first instants of the reaction, the system reduces to a simplified equation of the form of equation 2.
(§5) The kinetic constants characterizing the inactivation of the enzymes with the coumarin derivatives were determined using either the conventional sampling method (or batchwise method) or a method placing the inhibitor and the substrate in competition (or continuous method); these methods are described by Pochet et al. [Pochet et al., 1996, J. Med. Chem., 39: 2579-2585].
(§6) The inactivation of serine proteaaes with the coumarin derivatives is thus characterized by the following constants (see Eq. 2):
(§7) KI: apparent dissociation constant of an enzyme-inhibitor complex located upstream of ki
(§8) ki: first-order rate constant for inactivation at infinite inhibitor concentration
(§9) ki/KI: index of the overall inactivating efficacy of the inhibitor.

human leukocyte elastase = target: T2, human leukocyte elastase (Homo sapiens, UniProt P08246); assay: Inactivation kinetics of human leukocyte elastase (chromogenic substrate MeOSuc-Ala2-Pro-Val-pNA); format: biochemical; conditions: TABLE 5, phenyl esters; 25° C., pH 8.0; inactivation phase; N.I. = non-inactivator; read-out: Ki/KI or kobs/[I], HLE
T2 sequence (P08246 30-247 limits assumed): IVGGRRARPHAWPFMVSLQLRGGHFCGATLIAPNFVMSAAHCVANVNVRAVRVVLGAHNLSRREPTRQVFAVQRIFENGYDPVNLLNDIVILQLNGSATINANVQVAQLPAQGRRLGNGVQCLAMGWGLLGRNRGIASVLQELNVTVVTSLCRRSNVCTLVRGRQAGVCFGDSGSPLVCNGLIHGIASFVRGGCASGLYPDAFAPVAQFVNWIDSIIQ
Description: as §1, §2, §3, §4, §5, §6, §7, §8, §9

| Compound | melting point | further results |
| --- | --- | --- |
| O=C(Nc1cccnc1)c1cc2cc(CCl)ccc2oc1=O [II1, N-(3-pyridyl)-6-chloromethyl-2-oxo-2H-1-benzopyran-3-carboxamide] | 270 °C (dec.) | – |
| O=C(Nc1cccnc1Cl)c1cc2cc(CCl)ccc2oc1=O [II2, N-(2-chloro-3-pyridyl)-6-chloromethyl-2-oxo-2H-1-benzopyran-3-carboxamide] | 211 °C (dec.) | – |
| COc1ccc(NC(=O)c2cc3cc(CCl)ccc3oc2=O)cn1 [II3, N-(6-methoxy-3-pyridyl)-6-chloromethyl-2-oxo-2H-1-benzopyran-3-carboxamide] | 225 °C (dec.) | – |
| O=C(NSc1ncccc1[N+](=O)[O-])c1cc2cc(CCl)ccc2oc1=O [IV1, N-[(3-nitro-2-pyridyl)sulfanyl]-6-chloromethyl-2-oxo-2H-1-benzopyran-3-carboxamide] | 252 to 254 °C | – |
| Cc1ccc2oc(=O)c(C(=O)Oc3cc(Cl)ccc3Cl)cc2c1 [Ib3, 2,5-dichlorophenyl 6-methyl-2-oxo-2H-1-benzopyran-3-carboxylate] | 175 to 179 °C | kinact/KI (human leukocyte elastase): 3000 M⁻¹ s⁻¹ |
| O=C(OC1CCCCC1)c1cc2cc(CCl)ccc2oc1=O [Ic′1, cyclohexyl 6-chloromethyl-2-oxo-2H-1-benzopyran-3-carboxylate] | 185 to 186 °C | – |
| O=C(OC1CCCCCC1)c1cc2cc(CCl)ccc2oc1=O [Ic′2, cycloheptyl 6-chloromethyl-2-oxo-2H-1-benzopyran-3-carboxylate] | 171 to 174 °C | – |
| O=C(OC1CCCCCCC1)c1cc2cc(CCl)ccc2oc1=O [Ic′3, cyclooctyl 6-chloromethyl-2-oxo-2H-1-benzopyran-3-carboxylate] | 169 to 170 °C | – |
| O=C(OC1CCCCCCCCCCC1)c1cc2cc(CCl)ccc2oc1=O [Ic′4, cyclododecyl 6-chloromethyl-2-oxo-2H-1-benzopyran-3-carboxylate] | 164 to 167 °C | – |
| Cc1cncc(OC(=O)c2cc3cc(CCl)ccc3oc2=O)c1 [Ic′″2, 5-methyl-3-pyridyl 6-chloromethyl-2-oxo-2H-1-benzopyran-3-carboxylate] | 211 °C (dec.) | – |
| Cc1ccc(OC(=O)c2cc3cc(CCl)ccc3oc2=O)cn1 [Ic′″3, 6-methyl-3-pyridyl 6-chloromethyl-2-oxo-2H-1-benzopyran-3-carboxylate] | 205 to 208 °C | – |
| O=C(Oc1ccc2ncccc2c1)c1cc2cc(CCl)ccc2oc1=O [Ic″″2, 6-quinolyl 6-chloromethyl-2-oxo-2H-1-benzopyran-3-carboxylate] | 205 to 208 °C | – |
| CC(=O)OCc1ccc2oc(=O)c(C(=O)Oc3cc(Cl)ccc3Cl)cc2c1 [Id11, 2,5-dichlorophenyl 6-acetoxymethyl-2-oxo-2H-1-benzopyran-3-carboxylate] | 168 to 171 °C | kinact/KI (human thrombin): 500 M⁻¹ s⁻¹ |
| CC(=O)OCc1ccc2oc(=O)c(C(=O)Oc3cc(F)ccc3F)cc2c1 [Id12, 2,5-difluorophenyl 6-acetoxymethyl-2-oxo-2H-1-benzopyran-3-carboxylate] | 137 to 139 °C | kinact/KI (human thrombin): 150 M⁻¹ s⁻¹ |
| CC(=O)OCc1ccc2oc(=O)c(C(=O)Oc3cc(Cl)cc(Cl)c3)cc2c1 [Id13, 3,5-dichlorophenyl 6-acetoxymethyl-2-oxo-2H-1-benzopyran-3-carboxylate] | 146 to 150 °C | – |
| CC(=O)OCc1ccc2oc(=O)c(C(=O)Oc3cc(F)ccc3Br)cc2c1 [Id14, 2-bromo-5-fluorophenyl 6-acetoxymethyl-2-oxo-2H-1-benzopyran-3-carboxylate] | 148 to 150 °C | – |
| CC(=O)OCc1ccc2oc(=O)c(C(=O)Oc3cc(F)ccc3[N+](=O)[O-])cc2c1 [Id15, 5-fluoro-2-nitrophenyl 6-acetoxymethyl-2-oxo-2H-1-benzopyran-3-carboxylate] | 157 to 161 °C | – |

Continued, in another order:

| melting point | Compound | further results |
| --- | --- | --- |
| 223 to 225 °C | O=C(Oc1cc([N+](=O)[O-])ccc1[N+](=O)[O-])c1cc2ccccc2oc1=O | – |
| 225 to 229 °C | Cc1ccc2oc(=O)c(C(=O)Oc3cc([N+](=O)[O-])ccc3[N+](=O)[O-])cc2c1 | – |
| 153 to 157 °C | O=C(Oc1cc([N+](=O)[O-])ccc1[N+](=O)[O-])c1cc2cc(CCl)ccc2oc1=O | – |
| 162 to 164 °C | CC(=O)OCc1ccc2oc(=O)c(C(=O)Oc3cc([N+](=O)[O-])ccc3[N+](=O)[O-])cc2c1 | – |
| 134 to 137 °C | O=C(Oc1cc(F)ccc1F)c1cc2ccccc2oc1=O [Ia5, 2,5-difluorophenyl 2-oxo-2H-1-benzopyran-3-carboxylate] | Ki/KI or kobs/[I], Thrombin (human thrombin): N.I. |
| 173 to 175 °C | O=C(Oc1cc(F)ccc1Br)c1cc2ccccc2oc1=O [Ia6, 2-bromo-5-fluorophenyl 2-oxo-2H-1-benzopyran-3-carboxylate] | – |
| 219 to 223 °C | O=C(Oc1cc(F)ccc1[N+](=O)[O-])c1cc2ccccc2oc1=O [Ia7, 5-fluoro-2-nitrophenyl 2-oxo-2H-1-benzopyran-3-carboxylate] | – |
| 190 to 193 °C | O=C(Oc1cccc2cnccc12)c1cc2ccccc2oc1=O [Ia9, 5-isoquinolyl 2-oxo-2H-1-benzopyran-3-carboxylate] | – |
| 160 to 163 °C | O=C(Oc1cc2ccccc2cn1)c1cc2ccccc2oc1=O [Ia10, 3-isoquinolyl 2-oxo-2H-1-benzopyran-3-carboxylate] | – |
| 155 to 159 °C | Cc1ccc2oc(=O)c(C(=O)Oc3cc(F)ccc3F)cc2c1 [Ib4, 2,5-difluorophenyl 6-methyl-2-oxo-2H-1-benzopyran-3-carboxylate] | – |
| 187 to 190 °C | Cc1ccc2oc(=O)c(C(=O)Oc3cc(F)ccc3Br)cc2c1 [Ib5, 2-bromo-5-fluorophenyl 6-methyl-2-oxo-2H-1-benzopyran-3-carboxylate] | – |
| 224 to 226 °C | Cc1ccc2oc(=O)c(C(=O)Oc3cc(F)ccc3[N+](=O)[O-])cc2c1 [Ib6, 5-fluoro-2-nitrophenyl 6-methyl-2-oxo-2H-1-benzopyran-3-carboxylate] | – |
| 188 to 190 °C | Cc1ccc2oc(=O)c(C(=O)Oc3cccc4cnccc34)cc2c1 [Ib8, 5-isoquinolyl 6-methyl-2-oxo-2H-1-benzopyran-3-carboxylate] | – |
| 198 to 200 °C | O=C(Oc1cccnc1Cl)c1cc2cc(CCl)ccc2oc1=O [Ic′″4, 2-chloro-3-pyridyl 6-chloromethyl-2-oxo-2H-1-benzopyran-3-carboxylate] | – |
| 197 to 199 °C | O=C(Oc1cccnc1Br)c1cc2cc(CCl)ccc2oc1=O [Ic′″6, 2-bromo-3-pyridyl 6-chloromethyl-2-oxo-2H-1-benzopyran-3-carboxylate] | – |
| 190 to 193 °C | O=C(Oc1cccnc1[N+](=O)[O-])c1cc2cc(CCl)ccc2oc1=O [Ic′″7, 2-nitro-3-pyridyl 6-chloromethyl-2-oxo-2H-1-benzopyran-3-carboxylate] | – |
| 203 to 208 °C | Cc1ccc(OC(=O)c2cc3cc(CCl)ccc3oc2=O)c([N+](=O)[O-])n1 [Ic′″8, 6-methyl-2-nitro-3-pyridyl 6-chloromethyl-2-oxo-2H-1-benzopyran-3-carboxylate] | – |
| 203 to 205 °C | O=C(Oc1cc(F)ccc1Br)c1cc2cc(CCl)ccc2oc1=O [Ic″9, 2-bromo-5-fluorophenyl 6-chloromethyl-2-oxo-2H-1-benzopyran-3-carboxylate] | – |
| 205 to 208 °C | O=C(Oc1cc(F)ccc1[N+](=O)[O-])c1cc2cc(CCl)ccc2oc1=O [Ic″10, 5-fluoro-2-nitrophenyl 6-chloromethyl-2-oxo-2H-1-benzopyran-3-carboxylate] | – |
| 127 °C (dec.) | O=C(Oc1cccc2cccnc12)c1cc2cc(CCl)ccc2oc1=O [Ic″″1, 8-quinolyl 6-chloromethyl-2-oxo-2H-1-benzopyran-3-carboxylate] | – |
| 186 to 187 °C | CCC(=O)OCc1ccc2oc(=O)c(C(=O)Oc3ccccc3)cc2c1 [Id5, phenyl 6-propionyloxymethyl-2-oxo-2H-1-benzopyran-3-carboxylate] | – |
